Measured values taken from PMC6271697, “Anticancer Activities of Polyynes from the Root Bark of Oplopanax horridus and Their Acetylated Derivatives” (Molecules, 2014).
Several values for one entry are separate records, joined by “and”; a condition that tells them apart may be missing. Equal entries are not always repeated. Where two headings read alike, the source gives them in different places.

Key:
Assay type in all cases: cell-based, human
MDA-MB-231 cells = experiment: MTT cell viability assay, MDA-MB-231 cells; conditions: for IC50: MTT, 24 h incubation, read-out: IC50 MDA-MB-231
Procedure: (§1) The human breast cancer cell lines MCF-7, MDA-MB-231, human hepatocellular liver cell line HepG2 and human lung carcinoma epithelial cells A549 were purchased from American Type Culture Collection (ATCC, Manassas, VA, USA). Normal human hepatic LO2 cells were obtained from the Institute of Cell Biology, Academic Sinica (Shanghai, China). The cells were grown in an atmosphere of 5% CO2 at 37 °C in RPMI 1640 medium supplemented with 10% fetal bovine serum, 100 U/mL penicillin and […] streptomycin.
(§2) The viability of cells was measured by a colorimetric MTT assay. Briefly, 1 × 10^4 cells/well in 96-well microplates were exposed to different concentration of polyynes and their acetylated derivatives respectively for 24 h incubation, following addition of 20 μL MTT solution (4 mg/mL) to each well for another 4 h incubation at 37 °C. Finally, the medium was removed and replaced with 100 μL dimethyl sulfoxide which was added to dissolve the dye crystal presented in cells. The absorbance was recorded at 570 nm using a microplate reader (1420 Multilabel counter victor^3, Perkin-Elmer, Waltham, MA, USA). The results were expressed as ratio of absorbance between treatments and control cells (solvent vehicle set at 100%). Four replicate wells were tested per assay which was repeated three times.

A549 cells = experiment: MTT cell viability assay, A549 cells; conditions: for IC50: MTT, 24 h incubation, read-out: IC50 A549; for antiproliferative effect on A549 cells (in words): concentrations 1–300 µM
Procedure: as §1, §2

HepG2 cells = experiment: MTT cell viability assay, HepG2 cells; conditions: for IC50: MTT, 24 h incubation, read-out: IC50 HepG2; for antiproliferative effect on HepG2 cells (in words): concentrations 1–300 µM
Procedure: as §1, §2

MCF-7 cells = experiment: MTT cell viability assay, MCF-7 cells; conditions: for IC50: MTT, 24 h incubation, read-out: IC50 MCF-7; for antiproliferative effect on MCF-7 cells (in words): concentrations 1–300 µM
Procedure: as §1, §2

LO2 cells = experiment: MTT cell viability assay, normal hepatic LO2 cells; conditions: normal human hepatic cells, MTT, 24 h incubation, read-out: IC50 LO2
Procedure: as §1, §2

Q: What does the source list for `CC[C@H](O)C#CC#C[C@@H](O)/C=C\CCCCCCCCOC(C)=O` [OH-4, (11S,16S,Z)-11,16-Dihydroxyoctadeca-9-en-12,14-diynyl acetate]?
A: IC50 (MDA-MB-231 cells; Homo sapiens, MDA-MB-231): 87.8 ± 7.9 µM; IC50 (A549 cells; Homo sapiens, A549): 109.9 ± 0.8 µM; IC50 (HepG2 cells; Homo sapiens, HepG2): 69.1 ± 1.8 µM; IC50 (MCF-7 cells; Homo sapiens, MCF7): 100 ± 7 µM; IC50 (LO2 cells; L02): 91.9 ± 13.4 µM

Q: Which IC50 (MDA-MB-231 cells; Homo sapiens, MDA-MB-231) does the source give for `C=C[C@@H](C#CC#C[C@@H](O)/C=C\CCCCCCCCOC(C)=O)OC(C)=O` [OHR-9] here?
A: 52 ± 7.5 µM

Q: What about the IC50 (A549 cells; Homo sapiens, A549) of the same molecule?
A: 83.1 ± 8.4 µM

Q: And the IC50 (HepG2 cells; Homo sapiens, HepG2)?
A: 59.9 ± 3 µM

Q: What about the IC50 (MCF-7 cells; Homo sapiens, MCF7) of the same molecule?
A: 81.3 ± 1 µM

Q: What about the IC50 (LO2 cells; L02) of the same molecule?
A: 86.2 ± 11.3 µM

Q: What does the source list for `C=C[C@H](O)C#CC#C[C@@H](O)/C=C\CCCCCCCCO` [OH-5, (11S,16S,Z)-Octadeca-9,17-dien-12,14-diyne-1,11,16-triol]?
A: IC50 (MDA-MB-231 cells; Homo sapiens, MDA-MB-231): 49 ± 10.9 µM; IC50 (A549 cells; Homo sapiens, A549): 150 to 300 µM; IC50 (HepG2 cells; Homo sapiens, HepG2): 48.3 ± 5.9 µM; IC50 (MCF-7 cells; Homo sapiens, MCF7): 94.4 ± 7.3 µM; IC50 (LO2 cells; L02): 91 ± 9.5 µM

Q: Which IC50 (MDA-MB-231 cells; Homo sapiens, MDA-MB-231) does the source give for `CC[C@H](O)C#CC#C[C@H](/C=C\CCCCCCCCOC(C)=O)OC(C)=O` [OHR-12, (11S,16S,Z)-16-Hydroxyoctadeca-9-en-12,14-diyne-1,11-diyl diacetate] here?
A: 77.7 ± 1.9 µM

Q: What about the IC50 (A549 cells; Homo sapiens, A549) of the same molecule?
A: 100 to 300 µM

Q: And the IC50 (HepG2 cells; Homo sapiens, HepG2)?
A: 100 to 300 µM

Q: And the IC50 (MCF-7 cells; Homo sapiens, MCF7)?
A: 90.7 ± 0.3 µM

Q: What about the IC50 (LO2 cells; L02) of the same molecule?
A: 100 to 300 µM

Q: Which results are given for `CC[C@H](O)C#CC#C[C@@H](O)/C=C\CCCCCCCCO` [OH-6, (11S,16S,Z)-Octadeca-9-en-12,14-diyne-1,11,16-triol]?
A: IC50 (MDA-MB-231 cells; Homo sapiens, MDA-MB-231): 55.7 ± 11.8 µM; IC50 (A549 cells; Homo sapiens, A549): 85.7 ± 13.2 µM; IC50 (HepG2 cells; Homo sapiens, HepG2): 45.3 ± 6.3 µM; IC50 (MCF-7 cells; Homo sapiens, MCF7): 106 ± 13.2 µM; IC50 (LO2 cells; L02): 90.8 ± 4 µM

Q: Which IC50 (MDA-MB-231 cells) does the source give for “(3S,8S,Z)-3,18-Dihydroxyoctadeca-1,9-dien-4,6-diyn-8-yl acetate [OHR-15]” here?
A: 100 to 300 µM

Q: And the IC50 (A549 cells)?
A: > 300 µM

Q: What about the “antiproliferative effect on A549 cells (in words)” value (A549 cells) of the same molecule?
A: no cytotoxicity

Q: And the IC50 (HepG2 cells)?
A: > 300 µM

Q: And the “antiproliferative effect on HepG2 cells (in words)” value (HepG2 cells)?
A: no cytotoxicity

Q: And the IC50 (MCF-7 cells)?
A: > 300 µM

Q: What about the “antiproliferative effect on MCF-7 cells (in words)” value (MCF-7 cells) of the same molecule?
A: no cytotoxicity

Q: What about the IC50 (LO2 cells) of the same molecule?
A: > 300 µM

Q: “(3S,8S,Z)-8-Hydroxyheptadeca-1,9-dien-4,6-diyn-3-yl acetate [OHR-6]” was tested. Which IC50 (MDA-MB-231 cells) did it give?
A: 36.2 ± 13.4 µM

Q: What about the IC50 (HepG2 cells) of the same molecule?
A: 38.5 ± 6.2 µM

Q: And the IC50 (LO2 cells)?
A: 46.1 ± 11.7 µM

Q: “(3S,8S,Z)-18-Hydroxyoctadeca-9-en-4,6-diyne-3,8-diyl diacetate [OHR-13]” was tested. Which “concentration showing some antiproliferative effects on MDA-MB-231 cells” value (MDA-MB-231 cells) did it give?
A: about 150 µM

Q: And the IC50 (MDA-MB-231 cells)?
A: 137 ± 28.4 µM

Q: What about the IC50 (A549 cells) of the same molecule?
A: > 300 µM

Q: And the “antiproliferative effect on A549 cells (in words)” value (A549 cells)?
A: no cytotoxicity

Q: And the IC50 (HepG2 cells)?
A: > 300 µM

Q: And the “antiproliferative effect on HepG2 cells (in words)” value (HepG2 cells)?
A: no cytotoxicity

Q: What about the IC50 (MCF-7 cells) of the same molecule?
A: > 300 µM

Q: What about the “antiproliferative effect on MCF-7 cells (in words)” value (MCF-7 cells) of the same molecule?
A: no cytotoxicity

Q: What about the IC50 (LO2 cells) of the same molecule?
A: > 300 µM

Q: Which “concentration showing some antiproliferative effects on MDA-MB-231 cells” value (MDA-MB-231 cells) does the source give for “(3S,8S,Z)-18-Hydroxyoctadeca-1,9-dien-4,6-diyne-3,8-diyl diacetate [OHR-14]” here?
A: about 150 µM

Q: And the IC50 (MDA-MB-231 cells)?
A: 156 ± 35.5 µM

Q: What about the IC50 (A549 cells) of the same molecule?
A: > 300 µM

Q: And the “antiproliferative effect on A549 cells (in words)” value (A549 cells)?
A: no cytotoxicity

Q: What about the IC50 (HepG2 cells) of the same molecule?
A: 150 to 300 µM

Q: And the “antiproliferative effect on HepG2 cells (in words)” value (HepG2 cells)?
A: no cytotoxicity

Q: What about the IC50 (MCF-7 cells) of the same molecule?
A: > 300 µM

Q: What about the “antiproliferative effect on MCF-7 cells (in words)” value (MCF-7 cells) of the same molecule?
A: no cytotoxicity

Q: And the IC50 (LO2 cells)?
A: > 300 µM

Q: What does the source list for “(3S,8S,Z)-8-Hydroxyheptadeca-9-en-4,6-diyn-3-yl acetate [OHR-4]”?
A: IC50 (MDA-MB-231 cells): 23.4 ± 3.2 µM; IC50 (A549 cells): 31.4 µM and 33.3 µM; IC50 (HepG2 cells): 59.5 ± 3.1 µM; IC50 (MCF-7 cells): 28 ± 2.9 µM; IC50 (LO2 cells): 34.3 ± 1.5 µM
